Experimental findings from patent US12599596B2, “Anti-tumor pharmaceutical composition based on immune checkpoint blockade and use thereof” (Shanghai Hui Tian Jin Ze Biotech Co., Ltd., priority 2023, dated 2026) are described below.

Each structure is given as a SMILES string.

Assay [1] concerns PD-L1 on HT29 colon cancer cell membrane. Description: PD-L1 on cell membrane by flow cytometry. It is filed as cell-based. Conditions: concentration-dependent 5, 10, 20 μM, 24 h. As for the experimental part:
(§1) • (1) Different types of tumor cells (RKO, HCT116 and HT29 colon cancer cells, and A549, H1975 and H460 lung cancer cells) in the logarithmic growth phase were respectively inoculated on a 6-well plate at an inoculum density of 2.5×10^5 cells/well with 2 mL/well and then placed in a cell incubator overnight incubation. The culture mixture was removed, CBD at different concentrations (0 μM, 5 μM, 10 μM, and 20 μM) was added for treatment for 24 h, the supernatant was removed, and the cells were washed with PBS 2 times, digested with pancreatin, centrifuged at 300×g and 4° C. for 5 min, and collected. The cells were washed with precooled PBS 2 times, centrifuged at 300×g and 4° C. for 5 min, and collected. The cells were washed 2 times with precooled PBS, 100 μL of PBS was added to resuspend the cells, an anti-PD-L1-Alexa Fluor 647 antibody was added, the cells were incubated at room temperature for 30 min and centrifuged at 300×g and 4° C. for 5 min, 300 μL of PBS was added to resuspend the cells in a flow tube, and an Alexa Fluor 647 signal was detected from the sample using a flow cytometer (excitation/emission wavelength of 647 nm/666 nm). • (2) The colorectal cancer cells (RKO) in the logarithmic growth phase were inoculated into a 6-well plate at a density of 2.5×10^5 cells/well, with a 2 mL volume of the suspension in each well. The plate was placed into a cell incubator for incubation overnight, the culture mixture was removed, 20 μM CBD was added for 12 h, the supernatant was removed, PBS was used for washing 2 times, paraformaldehyde was added for fixing for 15 min, 5% BSA was added for fixing for 1 h, PBST was used for washing 2 times, a PD-L1 antibody was added overnight incubation, a red fluorescent antibody was added for incubation at room temperature for 1 h, DAPI was added for staining for 10 min, and finally, a laser scanning confocal microscope was used for photographing and analysis. 4. Research of CBD on Enhancing In Vitro Killing of Tumor Cells by T Cells
Background: In flow cytometry, cells or beads pass a laser one at a time.

Assay [2] relates to PD-L1 on H460 lung cancer cell membrane. Description: PD-L1 on cell membrane by flow cytometry. In kind it is cell-based. Conditions: concentration-dependent 5, 10, 20 μM, 24 h. As for the experimental part:
as §1

Assay [3] concerns PD-L1 on HCT116 colon cancer cell membrane. Put plainly: PD-L1 on cell membrane by flow cytometry. It is filed as cell-based. Conditions: concentration-dependent 5, 10, 20 μM, 24 h. As for the experimental part:
as §1

The test system of assay [4] is PD-L1 on RKO colon cancer cell membrane. Put plainly: PD-L1 on cell membrane by flow cytometry. Conditions: concentration-dependent 5, 10, 20 μM, 24 h. It is filed as cell-based. On the procedure: as §1
Assay [5] concerns PD-L1 on A549 lung cancer cell membrane. Put plainly: PD-L1 on cell membrane by flow cytometry. It is filed as cell-based. Conditions: concentration-dependent 5, 10, 20 μM, 24 h. On the procedure:
as §1

Assay [6] concerns PD-L1 on H1975 lung cancer cell membrane. Description: PD-L1 on cell membrane by flow cytometry. It is filed as cell-based. Conditions: concentration-dependent 5, 10, 20 μM, 24 h. On the procedure: as §1
In assay [7] the test system is MC38 colorectal cancer cells. Description: MC38 subcutaneous tumor model in C57BL/6 mice, Embodiment 2. In kind it is in vivo. Conditions: for Tumor volume: CBD 100 mg/kg, PAR 10 mg/kg, vitamin E 50 mg/kg, thymosin 2 mg/kg. As for the experimental part:
• 1. MC38 colorectal cancer cells were inoculated into 6-week-old female C57BL/6 mice (1×10^6 cells/mouse) to establish a subcutaneous tumor model. After the tumor volume reached 50 mm^3, the mice were grouped and administered according to the following pharmaceutical combinations: (1) control group (no administration), (2) anti-PD-1 ([…]/time) group, (3) anti-CTLA4 ([…]/time) group, (4) CBD (100 mg/kg) group, (5) CBD (100 mg/kg)+anti-CTLA4 ([…]/time) group, (6) PAR (10 mg/kg) group, (7) PAR (10 mg/kg)+anti-CTLA4 ([…]) group, (8) CBD (100 mg/kg)+PAR (10 mg/kg) group, (9) vitamin E(a-tocopherol) (50 mg/kg)+thymosin (2 mg/kg) group, (10) CBD (100 mg/kg)+vitamin E(α-tocopherol) (50 mg/kg)+thymosin (2 mg/kg) group, (11) PAR (10 mg/kg)+vitamin E(α-tocopherol) (50 mg/kg)+thymosin (2 mg/kg), (12) PAR (10 mg/kg)+CBD (100 mg/kg)+vitamin E(α-tocopherol) (50 mg/kg)+thymosin (2 mg/kg) group, (13) CBD (100 mg/kg)+vitamin E(α-tocopherol) (50 mg/kg)+thymosin (2 mg/kg)+anti-CTLA4 ([…]/time) group, (14) PAR (10 mg/kg)+vitamin E(α-tocopherol) (50 mg/kg)+thymosin (2 mg/kg)+anti-CTLA4 ([…]) group, and (15) CBD (100 mg/kg)+PAR (10 mg/kg)+vitamin E(α-tocopherol) (50 mg/kg)+thymosin (2 mg/kg)+anti-CTLA4 ([…]/time) group. The tumor weight and volume, and body weight of the mice were monitored once every 2 days. The tumor volume was calculated as follows: tumor volume (mm^3)=0.5×(length)x(width)^2. The mice were sacrificed 14 days after drug administration, and the tumors were dissected.
The dissolving mode of the pharmaceutical composition was as follows: the pharmaceutical composition was dissolved in 10% DMSO+corn oil, the mice were gavaged with the pharmaceutical composition at 100 pl/mouse, and the mice in the control group were injected with the same volume of the solvent. • 2. MC38 colorectal cancer cells were inoculated into 6-week-old female nude mice (1×10^6 cells/mouse) to establish a subcutaneous tumor model. After the tumor volume reached 50 mm^3, the mice were grouped and administered according to the following pharmaceutical combinations: (1) control group, (2) CBD (100 mg/kg)+vitamin E(α-tocopherol) (50 mg/kg)+thymosin (2 mg/kg) group, (3) PAR (10 mg/kg)+vitamin E(α-tocopherol) (50 mg/kg)+thymosin (2 mg/kg) group, and (4) PAR (10 mg/kg)+CBD (100 mg/kg)+vitamin E(α-tocopherol) (50 mg/kg)+thymosin (2 mg/kg) group. The tumor weight and volume, and the body weight of the mice were monitored once every 2 days. The tumor volume was calculated as follows: tumor volume (mm^3)=0.5×(length)x(width)^2. The mice were sacrificed 14 days after drug administration, and the tumors were dissected. (II) Experimental Results 1.

In the case of `C=C(C)[C@@H]1CCC(C)=C[C@H]1c1c(O)cc(CCCCC)cc1O` [CBD, cannabidiol], the “expression of PD-L1 on the cell membrane (flow assay)” value in assay [1], in assay [2], in assay [3], in assay [4], in assay [5] and in assay [6] was “decreased the expression of PD-L1” in each case. For the same compound, the Tumor volume in assay [7] (Day 0) is on record as 0 mm^3; in assay [7] (Day 2) it was 54.99 mm^3; in assay [7] (Day 4), 70.96 mm^3; in assay [7] (Day 6), 87.63 mm^3; in assay [7] (Day 8), 178.79 mm^3; in assay [7] (Day 10), 279.84 mm^3. In addition, the figures for the Tumor volume in assay [7] (Day 12), in assay [7] (Day 14) and in assay [7] (Day 16) were 399.70 mm^3, 493.09 mm^3 and 600.09 mm^3, respectively. The “therapeutic / tumor inhibition effect in words” value in assay [7] (normal mice, Embodiment 2, comparison between groups) was “equivalent therapeutic effects”.
